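Values below derive from 48-hour exposures of cells grown in 96-well plates, with endpoints linearly interpolated between the two concentrations bracketing the appropriate inhibition level. GI50 is the concentration that inhibits growth by half. Definition used: TGI = concentration required for complete inhibition of growth.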
Experiments:
Assay in all cases: growth of human tumour cells (NCI), 48 h
SK-OV-3 ovarian = tested on: SK-OV-3 ovarian
OVCAR-4 ovarian = tested on: OVCAR-4 ovarian
CAKI-1 renal = tested on: CAKI-1 renal
UACC-62 melanoma = tested on: UACC-62 melanoma
SN12C renal = tested on: SN12C renal
HCT-116 colon = tested on: HCT-116 colon
NCI-H226 lung = tested on: NCI-H226 lung
HL-60(TB) leukemia = tested on: HL-60(TB) leukemia
MCF7 breast = tested on: MCF7 breast
ACHN renal = tested on: ACHN renal
EKVX NSCLC = tested on: EKVX NSCLC
TK-10 renal = tested on: TK-10 renal
MDA-MB-231 breast = tested on: MDA-MB-231 breast
LOX IMVI melanoma = tested on: LOX IMVI melanoma
SK-MEL-28 melanoma = tested on: SK-MEL-28 melanoma
HS 578T breast = tested on: HS 578T breast
SW-620 colon = tested on: SW-620 colon
SF-295 CNS = tested on: SF-295 CNS
NCI/ADR-RES ovarian = tested on: NCI/ADR-RES ovarian
CCRF-CEM leukemia = tested on: CCRF-CEM leukemia
NCI-H23 lung = tested on: NCI-H23 lung
HCT-15 colon = tested on: HCT-15 colon
U251 CNS = tested on: U251 CNS
UACC-257 melanoma = tested on: UACC-257 melanoma
SK-MEL-5 melanoma = tested on: SK-MEL-5 melanoma
IGROV1 ovarian = tested on: IGROV1 ovarian
MALME-3M melanoma = tested on: MALME-3M melanoma
M14 melanoma = tested on: M14 melanoma
SNB-19 CNS = tested on: SNB-19 CNS
HCC-2998 colon = tested on: HCC-2998 colon
K-562 leukemia = tested on: K-562 leukemia
OVCAR-3 ovarian = tested on: OVCAR-3 ovarian
A498 renal = tested on: A498 renal
SNB-75 CNS = tested on: SNB-75 CNS
HOP-62 NSCLC = tested on: HOP-62 NSCLC
PC-3 prostate = tested on: PC-3 prostate
OVCAR-5 ovarian = tested on: OVCAR-5 ovarian
SF-539 CNS = tested on: SF-539 CNS
RPMI-8226 leukemia = tested on: RPMI-8226 leukemia
SF-268 CNS = tested on: SF-268 CNS
HT29 colon = tested on: HT29 colon
HOP-92 NSCLC = tested on: HOP-92 NSCLC
UO-31 renal = tested on: UO-31 renal
DU-145 prostate = tested on: DU-145 prostate
MOLT-4 leukemia = tested on: MOLT-4 leukemia
SR leukemia = tested on: SR leukemia
NCI-H522 lung = tested on: NCI-H522 lung
OVCAR-8 ovarian = tested on: OVCAR-8 ovarian
NCI-H460 lung = tested on: NCI-H460 lung
KM12 colon = tested on: KM12 colon
BT-549 breast = tested on: BT-549 breast
A549 NSCLC = tested on: A549 NSCLC
COLO 205 colon = tested on: COLO 205 colon
786-0 renal = tested on: 786-0 renal
SK-MEL-2 melanoma = tested on: SK-MEL-2 melanoma

With Nc1n[nH]c2ccc([C@@H]3Nc4ccc5[nH]ncc5c4[C@H]4[C@H]5CCC(C5)[C@H]43)cc12 the GI50 (SK-OV-3 ovarian) was 823 nM, the TGI (SK-OV-3 ovarian) was over 80100 nM and the GI50 (OVCAR-4 ovarian) was 2050 nM. The TGI (OVCAR-4 ovarian) was over 100000 nM, the GI50 (CAKI-1 renal) was 436 nM and the TGI (CAKI-1 renal) was 24700 nM. It also gave a GI50 (UACC-62 melanoma) of 389 nM, a TGI (UACC-62 melanoma) of over 61100 nM and a GI50 (SN12C renal) of 618 nM. The TGI (SN12C renal) was over 89700 nM, the GI50 (HCT-116 colon) was 404 nM and the TGI (HCT-116 colon) was over 100000 nM. For the same compound, the GI50 (NCI-H226 lung) was 331 nM, the TGI (NCI-H226 lung) was 2880 nM and the GI50 (HL-60(TB) leukemia) was 247 nM. For the same compound, the TGI (HL-60(TB) leukemia) was 654 nM, the GI50 (MCF7 breast) was 363 nM and the TGI (MCF7 breast) was over 100000 nM. The GI50 (ACHN renal) was 895 nM, the TGI (ACHN renal) was over 72000 nM and the GI50 (EKVX NSCLC) was 606 nM. It also gave a TGI (EKVX NSCLC) of over 100000 nM, a GI50 (TK-10 renal) of 8250 nM and a TGI (TK-10 renal) of over 79500 nM. The GI50 (MDA-MB-231 breast) was 688 nM, the TGI (MDA-MB-231 breast) was 18500 nM and the GI50 (LOX IMVI melanoma) was 700 nM. For the same compound, the TGI (LOX IMVI melanoma) was 14500 nM, the GI50 (SK-MEL-28 melanoma) was 910 nM and the TGI (SK-MEL-28 melanoma) was over 76300 nM. For the same compound, the GI50 (HS 578T breast) was 310 nM, the TGI (HS 578T breast) was 12700 nM and the GI50 (SW-620 colon) was 372 nM. The TGI (SW-620 colon) was over 100000 nM, the GI50 (SF-295 CNS) was 302 nM and the TGI (SF-295 CNS) was 3470 nM. It also gave a GI50 (NCI/ADR-RES ovarian) of 525 nM, a TGI (NCI/ADR-RES ovarian) of over 44100 nM and a GI50 (CCRF-CEM leukemia) of 383 nM. It also gave a TGI (CCRF-CEM leukemia) of over 100000 nM, a GI50 (NCI-H23 lung) of 654 nM and a TGI (NCI-H23 lung) of over 46000 nM. It also gave a GI50 (HCT-15 colon) of 407 nM, a TGI (HCT-15 colon) of over 100000 nM and a GI50 (U251 CNS) of 435 nM. The TGI (U251 CNS) was over 100000 nM, the GI50 (UACC-257 melanoma) was 15800 nM and the TGI (UACC-257 melanoma) was over 100000 nM. For the same compound, the GI50 (SK-MEL-5 melanoma) was 403 nM, the TGI (SK-MEL-5 melanoma) was 2600 nM and the GI50 (IGROV1 ovarian) was 513 nM. For the same compound, the TGI (IGROV1 ovarian) was over 51600 nM, the GI50 (MALME-3M melanoma) was 461 nM and the TGI (MALME-3M melanoma) was over 47500 nM. The GI50 (M14 melanoma) was 293 nM, the TGI (M14 melanoma) was over 40700 nM and the GI50 (SNB-19 CNS) was 515 nM. For the same compound, the TGI (SNB-19 CNS) was over 100000 nM, the GI50 (HCC-2998 colon) was 381 nM and the TGI (HCC-2998 colon) was 11600 nM. The GI50 (K-562 leukemia) was 264 nM, the TGI (K-562 leukemia) was over 100000 nM and the GI50 (OVCAR-3 ovarian) was 230 nM. For the same compound, the TGI (OVCAR-3 ovarian) was 640 nM, the GI50 (A498 renal) was 168 nM and the TGI (A498 renal) was 641 nM. The GI50 (SNB-75 CNS) was 160 nM, the TGI (SNB-75 CNS) was 11300 nM and the GI50 (HOP-62 NSCLC) was 597 nM. It also gave a TGI (HOP-62 NSCLC) of over 74000 nM, a GI50 (PC-3 prostate) of 397 nM and a TGI (PC-3 prostate) of 23000 nM. It also gave a GI50 (OVCAR-5 ovarian) of 572 nM, a TGI (OVCAR-5 ovarian) of 49600 nM and a GI50 (SF-539 CNS) of 238 nM. The TGI (SF-539 CNS) was 673 nM, the GI50 (RPMI-8226 leukemia) was 338 nM and the TGI (RPMI-8226 leukemia) was 2370 nM. For the same compound, the GI50 (SF-268 CNS) was 1560 nM, the TGI (SF-268 CNS) was 43700 nM and the GI50 (HT29 colon) was 350 nM. For the same compound, the TGI (HT29 colon) was over 36800 nM, the GI50 (HOP-92 NSCLC) was 1450 nM and the TGI (HOP-92 NSCLC) was 14900 nM. It also gave a GI50 (UO-31 renal) of 698 nM, a TGI (UO-31 renal) of 46500 nM and a GI50 (DU-145 prostate) of 445 nM. It also gave a TGI (DU-145 prostate) of over 28300 nM, a GI50 (MOLT-4 leukemia) of 407 nM and a TGI (MOLT-4 leukemia) of over 51300 nM. The GI50 (SR leukemia) was 280 nM, the TGI (SR leukemia) was 20200 nM and the GI50 (NCI-H522 lung) was 310 nM. It also gave a TGI (NCI-H522 lung) of 3570 nM, a GI50 (OVCAR-8 ovarian) of 479 nM and a TGI (OVCAR-8 ovarian) of over 47500 nM. It also gave a GI50 (NCI-H460 lung) of 358 nM, a TGI (NCI-H460 lung) of 10900 nM and a GI50 (KM12 colon) of 406 nM. For the same compound, the TGI (KM12 colon) was 10800 nM, the GI50 (BT-549 breast) was 489 nM and the TGI (BT-549 breast) was 9290 nM. The GI50 (A549 NSCLC) was 586 nM, the TGI (A549 NSCLC) was over 100000 nM and the GI50 (COLO 205 colon) was 375 nM. For the same compound, the TGI (COLO 205 colon) was 5680 nM, the GI50 (786-0 renal) was 757 nM and the TGI (786-0 renal) was 33800 nM. The GI50 (SK-MEL-2 melanoma) was 1240 nM and the TGI (SK-MEL-2 melanoma) was 40800 nM.

Source: PubChem BioAssay (NCI)
